pIC50: −log10 of the molar value. A value given as a limit tells only on which side of the number the result lay.

T1 sequence (Q13315 whole entry): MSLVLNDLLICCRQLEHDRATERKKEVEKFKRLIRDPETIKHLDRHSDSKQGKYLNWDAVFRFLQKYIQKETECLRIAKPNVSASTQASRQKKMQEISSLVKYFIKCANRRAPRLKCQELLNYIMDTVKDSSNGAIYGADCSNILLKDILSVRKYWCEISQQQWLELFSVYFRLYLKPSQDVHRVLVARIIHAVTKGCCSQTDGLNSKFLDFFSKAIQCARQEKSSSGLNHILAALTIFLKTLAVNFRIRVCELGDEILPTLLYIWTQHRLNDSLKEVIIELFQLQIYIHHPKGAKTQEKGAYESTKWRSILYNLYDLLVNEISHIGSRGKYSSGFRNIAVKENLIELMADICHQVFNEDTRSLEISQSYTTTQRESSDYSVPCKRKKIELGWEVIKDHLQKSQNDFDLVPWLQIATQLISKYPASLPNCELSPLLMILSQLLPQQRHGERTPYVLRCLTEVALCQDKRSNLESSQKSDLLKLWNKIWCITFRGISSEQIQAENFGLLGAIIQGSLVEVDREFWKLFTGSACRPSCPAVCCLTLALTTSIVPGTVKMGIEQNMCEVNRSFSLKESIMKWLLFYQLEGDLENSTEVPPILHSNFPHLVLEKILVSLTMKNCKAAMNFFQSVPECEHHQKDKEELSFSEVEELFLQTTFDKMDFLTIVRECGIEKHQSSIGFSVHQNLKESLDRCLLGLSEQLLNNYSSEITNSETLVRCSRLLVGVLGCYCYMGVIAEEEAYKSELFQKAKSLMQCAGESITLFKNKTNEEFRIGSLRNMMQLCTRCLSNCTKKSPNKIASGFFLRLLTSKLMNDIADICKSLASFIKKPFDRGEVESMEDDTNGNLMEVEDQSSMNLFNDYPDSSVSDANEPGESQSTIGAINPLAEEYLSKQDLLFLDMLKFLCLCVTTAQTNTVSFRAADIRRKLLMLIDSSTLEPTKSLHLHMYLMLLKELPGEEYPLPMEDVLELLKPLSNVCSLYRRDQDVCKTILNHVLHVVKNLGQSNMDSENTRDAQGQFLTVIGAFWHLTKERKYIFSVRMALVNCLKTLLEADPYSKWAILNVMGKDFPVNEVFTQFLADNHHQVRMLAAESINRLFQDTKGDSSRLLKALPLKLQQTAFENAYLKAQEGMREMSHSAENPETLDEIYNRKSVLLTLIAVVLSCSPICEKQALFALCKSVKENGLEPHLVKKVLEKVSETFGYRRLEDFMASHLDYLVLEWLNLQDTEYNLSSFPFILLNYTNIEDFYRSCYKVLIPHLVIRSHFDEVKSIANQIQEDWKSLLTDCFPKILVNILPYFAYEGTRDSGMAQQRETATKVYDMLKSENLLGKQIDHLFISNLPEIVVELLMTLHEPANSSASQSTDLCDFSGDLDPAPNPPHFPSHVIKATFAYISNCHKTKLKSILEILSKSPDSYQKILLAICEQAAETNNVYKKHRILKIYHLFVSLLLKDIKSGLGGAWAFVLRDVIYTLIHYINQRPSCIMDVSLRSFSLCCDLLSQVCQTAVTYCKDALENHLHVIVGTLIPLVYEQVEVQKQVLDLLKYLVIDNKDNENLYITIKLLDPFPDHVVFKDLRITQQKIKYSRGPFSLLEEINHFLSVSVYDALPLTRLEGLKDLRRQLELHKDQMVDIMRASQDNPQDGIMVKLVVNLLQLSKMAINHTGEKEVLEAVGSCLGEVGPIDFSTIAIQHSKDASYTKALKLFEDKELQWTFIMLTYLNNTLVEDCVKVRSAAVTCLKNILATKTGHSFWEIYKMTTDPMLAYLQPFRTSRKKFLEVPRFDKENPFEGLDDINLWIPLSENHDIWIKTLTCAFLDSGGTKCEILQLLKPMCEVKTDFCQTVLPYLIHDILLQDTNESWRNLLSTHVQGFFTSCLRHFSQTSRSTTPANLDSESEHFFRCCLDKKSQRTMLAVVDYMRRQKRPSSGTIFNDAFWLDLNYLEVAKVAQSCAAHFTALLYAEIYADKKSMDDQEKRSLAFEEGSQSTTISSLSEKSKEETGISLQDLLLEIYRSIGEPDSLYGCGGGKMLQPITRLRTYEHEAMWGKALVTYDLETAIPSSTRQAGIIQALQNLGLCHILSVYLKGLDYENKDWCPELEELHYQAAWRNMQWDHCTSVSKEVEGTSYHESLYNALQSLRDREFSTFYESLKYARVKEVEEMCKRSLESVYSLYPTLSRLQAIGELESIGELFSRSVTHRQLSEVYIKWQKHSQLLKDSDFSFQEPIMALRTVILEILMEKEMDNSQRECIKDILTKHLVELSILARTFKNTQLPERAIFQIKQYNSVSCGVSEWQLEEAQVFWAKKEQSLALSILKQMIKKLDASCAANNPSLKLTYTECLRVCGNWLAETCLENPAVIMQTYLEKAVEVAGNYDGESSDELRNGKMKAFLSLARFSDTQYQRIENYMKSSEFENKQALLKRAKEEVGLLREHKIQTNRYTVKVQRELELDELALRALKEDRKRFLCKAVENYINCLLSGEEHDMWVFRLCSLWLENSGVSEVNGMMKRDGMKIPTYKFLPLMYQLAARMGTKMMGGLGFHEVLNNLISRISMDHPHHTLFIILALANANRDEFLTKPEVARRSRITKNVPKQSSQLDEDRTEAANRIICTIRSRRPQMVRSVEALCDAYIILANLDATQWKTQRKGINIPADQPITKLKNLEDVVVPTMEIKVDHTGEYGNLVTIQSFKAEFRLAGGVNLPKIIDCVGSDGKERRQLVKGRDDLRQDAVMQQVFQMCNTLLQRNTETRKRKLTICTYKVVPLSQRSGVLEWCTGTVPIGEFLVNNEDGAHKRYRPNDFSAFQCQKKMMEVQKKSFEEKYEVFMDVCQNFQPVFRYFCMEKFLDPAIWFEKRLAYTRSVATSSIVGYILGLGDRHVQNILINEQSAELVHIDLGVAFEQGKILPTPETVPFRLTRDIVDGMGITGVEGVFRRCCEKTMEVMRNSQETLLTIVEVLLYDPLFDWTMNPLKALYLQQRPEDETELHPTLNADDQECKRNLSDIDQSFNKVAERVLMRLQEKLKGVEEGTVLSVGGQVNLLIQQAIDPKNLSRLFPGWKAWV

This assay concerns the target T1, ATM (Homo sapiens, UniProt Q13315).
T1 construct: detecting phosphorylation of Chk2 in a human non-small cell lung cancer cell line NCI-H460 (ATCC company); host or cells: NCI-H460 human non-small cell lung cancer cells
The experiment in a line: ATM inhibition test (phosphorylation of Chk2 generated by ionizing radiation, AlphaScreen SureFire). In kind it is cell-based. The settings on record: phosphorylated Chk2 in NCI-H460 cells, ionizing radiation 8Gy, 1 hour after test compound treatment; read-out: ATM inhibitory activity. The method in brief:
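NCI-H460 cells treated with compound for 1 hour, then irradiated with 8Gy and incubated 1 hour at 37° C. Phospho-Chk2 measured by AlphaScreen SureFire. Inhibition ratio calculated relative to untreated irradiated and non-irradiated wells.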
(In general: Bead proximity is the source of the signal in Alpha formats.)
For `Cc1ccc(C(Nc2ccc3c(c2)Sc2cccc(-c4cc(N5CCOCC5)cc(=O)[nH]4)c2S3)[C@@H]2CN(C)CCO2)nc1` (single isomer, unassigned) [Example 1-56-10], the pIC50 was > 7.00. The same measure for `Cc1ccc(C(Nc2ccc3c(c2)Sc2cccc(-c4cc(N5CCOCC5)cc(=O)[nH]4)c2S3)[C@H]2CCCN2C)nc1` (single isomer, unassigned) [Example 1-56-5]: > 7.00; for `Cc1cccc(C(Nc2ccc3c(c2)Sc2cccc(-c4cc(N5CCOCC5)cc(=O)[nH]4)c2S3)C2CCNC2)n1` (stereo not shown) [Example 1-20-14, 6-(7-(((6-Methylpyridin-2-yl)(pyrrolidin-3-yl)methyl)amino)thianthren-1-yl)-4-morpholino pyridin-2(1H)-one]: 6.30 to 7.00; for `O=c1cc(N2CCOCC2)cc(-c2cccc3c2Sc2ccc(NC(CF)CN4CCOCC4)cc2S3)[nH]1` (single isomer, unassigned) [Example 1-41-1-3, 6-(7-((1-fluoro-3-morpholinopropan-2-yl)amino)thianthren-1-yl)-4-morpholinopyridin-2(1H)-one]: 6.30 to 7.00. The same measure for `O=c1cc(N2CCOCC2)cc(-c2ccc(F)c3c2Oc2ccc(NCc4cncc(Cl)c4)cc2C3)[nH]1` [Example 2-44-3, 6-(7-(((5-Chloropyridin-3-yl)methyl)amino)-1-fluoro-9H-xanthen-4-yl)-4-morpholinopyridin-2(1H)-one]: 6.30 to 7.00; for `COCCCN1CCC(Nc2ccc3c(c2)Cc2cccc(-c4cc(N5CCOCC5)cc(=O)[nH]4)c2O3)CC1` [Example 2-30-15, 6-(7-((1-(3-Methoxypropyl)piperidin-4-yl)amino)-9H-xanthen-4-yl)-4-morpholino pyridin-2 (1H)-one]: 5.70 to 6.30. For the molecule `Cc1ccc(C(CCN(C)CCN(C)C)Nc2ccc3c(c2)Sc2cccc(-c4cc(N5CCOCC5)cc(=O)[nH]4)c2S3)nc1` (single isomer, unassigned) [Example 10-5-1, 6-(7-((3-((2-(Dimethylamino)ethyl)(methyl)amino)-1-(5-methylpyridin-2-yl)propyl)amino)thianthren-1-yl)-4-morpholinopyridin-2(1H)-one], the pIC50 was > 7.00. For `Cc1ccc(C(C[C@@H]2CCCN2C)Nc2ccc3c(c2)Sc2cccc(-c4cc(N5CCOCC5)cc(=O)[nH]4)c2S3)nc1` (single isomer, unassigned) [Example 12-2] the value was 6.30 to 7.00; for `COc1cccc(CNc2ccc3c(c2)Cc2cccc(-c4cc(N5CCOCC5)cc(=O)[nH]4)c2O3)n1` [Example 2-2-32, 6-(7-(((6-Methoxypyridin-2-yl)methyl)amino)-9H-xanthen-4-yl)-4-morpholino pyridin-2(1H)-one], 6.30 to 7.00.

Take `O=C(Nc1ccc2c(c1)Cc1cccc(-c3cc(N4CCOCC4)cc(=O)[nH]3)c1O2)c1cc(Br)ccn1` [Example 2-24, 4-bromo-N-(5-(4-morpholino-6-oxo-1,6-dihydropyridin-2-yl)-9H-xanthen-2-yl)picolinamide]: the pIC50 was 5.70 to 6.30. Consider `Nc1ncccc1CNc1ccc2c(c1)Cc1cccc(-c3cc(N4CCOCC4)cc(=O)[nH]3)c1O2` [Example 2-2-21, 6-(7-(((2-Aminopyridin-3-yl)methyl)amino)-9H-xanthen-4-yl)-4-morpholino pyridin-2(1H)-one], for which the pIC50 was 6.30 to 7.00. The same measure for `O=c1cc(N2CCOCC2)cc(-c2cccc3c2Oc2ccc(NC4CCN(CCc5ccccc5)CC4)cc2C3)[nH]1` [Example 2-28-29, 4-Morpholino-6-(7-((1-phenethylpiperidin-4-yl)amino)-9H-xanthen-4-yl) pyridin-2(1H)-one]: 6.30 to 7.00; for `Cc1ccnc(C(C)Nc2ccc3c(c2)Cc2cccc(-c4cc(N5CCOCC5)cc(=O)[nH]4)c2O3)n1` (stereo not shown) [Example 2-14-79, 6-(7-((1-(4-Methylpyrimidin-2-yl)ethyl)amino)-9H-xanthen-4-yl)-4-morpholino pyridin-2(1H)-one]: 6.30 to 7.00; for `O=c1cc(N2CCOCC2)cc(-c2cccc3c2Sc2ccc(NC4CCCN(Cc5ccncc5)C4)cc2S3)[nH]1` (stereo not shown) [Example 1-24-4, 4-Morpholino-6-(7-((1-(pyridin-4-ylmethyl)piperidin-3-yl)amino)thianthren-1-yl)pyridin-2 (1H)-one]: > 7.00. Regarding `O=c1cc(N2CCOCC2)cc(-c2cccc3c2Oc2ccc(NCc4cncc(C5=CCCC5)c4)cc2C3)[nH]1` [Example 2-2-61, 6-(7-(((5-(Cyclopent-1-en-1-yl)pyridin-3-yl)methyl)amino)-9H-xanthen-4-yl)-4-morpholino pyridin-2(1H)-one], the pIC50 was 6.30 to 7.00. For `O=c1cc(N2CCOCC2)cc(-c2cccc3c2Sc2ccc(NCCCc4cccnc4)cc2S3)[nH]1` [Example 1-12-27, 4-Morpholino-6-(7-((3-(pyridin-3-yl)propyl)amino)thianthren-1-yl)pyridin-2(1H)-one] the value was 5.70 to 6.30; for `CC[C@H](N)C(CC(C)C)Nc1ccc2c(c1)Sc1cccc(-c3cc(N4CCOCC4)cc(=O)[nH]3)c1S2` (stereo partly shown) [Example 1-20-7], 5.70 to 6.30.

As for `COc1ccc(CNc2ccc3c(c2)Cc2cccc(-c4cc(N5CCOCC5)cc(=O)[nH]4)c2O3)cc1` [Example 2-40, 6-(7-((4-methoxybenzyl)amino)-9H-xanthen-4-yl)-4-morpholinopyridin-2(1H)-one], the pIC50 is 6.30 to 7.00. With `CC(Nc1ccc2c(c1)Sc1cccc(-c3cc(N4CCOCC4)cc(=O)[nH]3)c1S2)c1ncccn1` (stereo not shown) [Example 1-12-68, 4-Morpholino-6-(7-((1-(pyrimidin-2-yl)ethyl)amino)thianthren-1-yl)pyridin-2 (1H)-one], the pIC50 is 6.30 to 7.00.

On to `O=c1cc(N2CCOCC2)cc(-c2cccc3c2Sc2ccc(NCc4cncc(-n5ccnc5)c4)cc2S3)[nH]1` [Example 1-12-20, 6-(7-(((5-(1H-Imidazol-1-yl)pyridin-3-yl)methyl)amino)thianthren-1-yl)-4-morpholino pyridin-2(1H)-one], for which the pIC50 was > 7.00. For `Cc1cccc(CN(CC(=O)O)c2ccc3c(c2)Cc2cccc(-c4cc(N5CCOCC5)cc(=O)[nH]4)c2O3)n1` [Example 2-17, 2-(((6-methylpyridin-2-yl)methyl)(5-(4-morpholino-6-oxo-1,6-dihydropyridin-2-yl)-9H-xanthen-2-yl)amino)acetic acid] the value was 5.70 to 6.30. The same measure for `O=c1cc(N2CCOCC2)cc(-c2cccc3c2Oc2ccc(NC4CN(CCc5ccccc5)C4)cc2C3)[nH]1` [Example 2-19-6, 4-Morpholino-6-(7-((1-phenethylazetidin-3-yl)amino)-9H-xanthen-4-yl)pyridin-2(1H)-one]: 6.30 to 7.00. The same measure for `COC[C@H](CN1CCOCC1)Nc1ccc2c(c1)Sc1cccc(-c3cc(=O)cc(N4CCOCC4)o3)c1S2` [Example 11-3, (S)-2-(7-((1-methoxy-3-morpholinopropan-2-yl)amino)thianthren-1-yl)-6-morpholino-4H-pyran-4-one]: > 7.00; for `O=c1cc(N2CCOCC2)cc(-c2cccc3c2Sc2ccc(NCc4nccs4)cc2S3)[nH]1` [Example 1-12-52, 4-Morpholino-6-(7-((thiazol-2-ylmethyl)amino)thianthren-1-yl) pyridin-2 (1H)-one]: 6.30 to 7.00. With `CC[C@@H](C(C)Nc1ccc2c(c1)Sc1cccc(-c3cc(N4CCOCC4)cc(=O)[nH]3)c1S2)N1CCOCC1` (stereo partly drawn) [Example 1-21-3, 4-Morpholino-6-(7-(((3S)-3-morpholinopentan-2-yl)amino)thianthren-1-yl) pyridin-2(1H)-one], the pIC50 is 6.30 to 7.00.

The record behind these values is patent US9586951B2 (FUJIFILM Corporation, priority 2013, dated 2017).
